Among the data in ChEMBL document CHEMBL4396864, “Small-Molecule Modulators of the Hypoxia-Inducible Factor Pathway: Development and Therapeutic Applications” (J Med Chem, 2019) are IC50 and Kd values, retold here.

Broadly, the IC50 is the point on the concentration scale where inhibition reaches its midpoint. By Kd is commonly meant the equilibrium constant for the complex coming apart. High values mean lower affinity, low ones higher affinity.

For assay [1], the target named is Hypoxia-inducible factor 1-alpha (Homo sapiens, UniProt Q16665). As to the kind of experiment: Inhibition of HIF-1alpha in human U373 cells. In kind it is cell-based, U-373MG ATCC.
Sequence of Hypoxia-inducible factor 1-alpha (Q16665 whole entry): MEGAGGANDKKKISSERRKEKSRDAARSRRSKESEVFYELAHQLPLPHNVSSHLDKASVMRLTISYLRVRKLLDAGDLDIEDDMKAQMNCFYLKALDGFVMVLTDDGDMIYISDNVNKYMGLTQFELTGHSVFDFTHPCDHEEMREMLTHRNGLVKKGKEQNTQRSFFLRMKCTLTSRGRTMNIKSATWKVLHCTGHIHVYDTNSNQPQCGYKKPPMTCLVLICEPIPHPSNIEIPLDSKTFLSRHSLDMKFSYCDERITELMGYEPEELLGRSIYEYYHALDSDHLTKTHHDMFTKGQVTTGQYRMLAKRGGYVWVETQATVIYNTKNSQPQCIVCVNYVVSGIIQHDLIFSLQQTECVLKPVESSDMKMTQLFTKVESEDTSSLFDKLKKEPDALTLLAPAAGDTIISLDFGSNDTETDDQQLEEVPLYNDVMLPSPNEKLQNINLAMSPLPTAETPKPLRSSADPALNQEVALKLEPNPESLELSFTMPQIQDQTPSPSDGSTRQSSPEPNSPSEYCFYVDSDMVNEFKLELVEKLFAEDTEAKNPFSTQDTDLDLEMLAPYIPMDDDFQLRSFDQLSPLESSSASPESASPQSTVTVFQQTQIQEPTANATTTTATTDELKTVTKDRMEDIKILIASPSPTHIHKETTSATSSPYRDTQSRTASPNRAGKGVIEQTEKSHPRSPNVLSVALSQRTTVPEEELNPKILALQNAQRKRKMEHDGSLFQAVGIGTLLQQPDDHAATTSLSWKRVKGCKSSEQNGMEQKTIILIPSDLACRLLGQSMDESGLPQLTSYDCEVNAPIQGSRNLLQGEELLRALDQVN
For a further assay, the system named is Hep 3B2. As to the kind of experiment: Downregulation of VEGF protein level in human Hep3B cells after 8 hrs by ELISA. It is filed as functional, cell-based. (In general: ELISA stands for enzyme-linked immunosorbent assay.)
Assay [2] concerns the target Histone acetyltransferase p300 (Homo sapiens, UniProt Q09472). As to the kind of experiment: Binding affinity to p300 (unknown origin).
The target of assay [3] is T1, CREB-binding protein/Histone acetyltransferase p300 (Homo sapiens, UniProt Q09472+Q92793). Kind of assay: Inhibition of GST-tagged p300 (unknown origin)/CBP (unknown origin) protein-protein interaction. It is filed as protein assay.
Assay [4] has as its target T1, CREB-binding protein/Histone acetyltransferase p300. Kind of assay: Inhibition of GST-tagged p300 (unknown origin)/CBP (unknown origin) protein-protein interaction by fluorescence polarization assay. Background: Polarisation of emitted light reports the rotation of a fluorescent probe.

Sequence of Histone acetyltransferase p300 (Q09472 whole entry): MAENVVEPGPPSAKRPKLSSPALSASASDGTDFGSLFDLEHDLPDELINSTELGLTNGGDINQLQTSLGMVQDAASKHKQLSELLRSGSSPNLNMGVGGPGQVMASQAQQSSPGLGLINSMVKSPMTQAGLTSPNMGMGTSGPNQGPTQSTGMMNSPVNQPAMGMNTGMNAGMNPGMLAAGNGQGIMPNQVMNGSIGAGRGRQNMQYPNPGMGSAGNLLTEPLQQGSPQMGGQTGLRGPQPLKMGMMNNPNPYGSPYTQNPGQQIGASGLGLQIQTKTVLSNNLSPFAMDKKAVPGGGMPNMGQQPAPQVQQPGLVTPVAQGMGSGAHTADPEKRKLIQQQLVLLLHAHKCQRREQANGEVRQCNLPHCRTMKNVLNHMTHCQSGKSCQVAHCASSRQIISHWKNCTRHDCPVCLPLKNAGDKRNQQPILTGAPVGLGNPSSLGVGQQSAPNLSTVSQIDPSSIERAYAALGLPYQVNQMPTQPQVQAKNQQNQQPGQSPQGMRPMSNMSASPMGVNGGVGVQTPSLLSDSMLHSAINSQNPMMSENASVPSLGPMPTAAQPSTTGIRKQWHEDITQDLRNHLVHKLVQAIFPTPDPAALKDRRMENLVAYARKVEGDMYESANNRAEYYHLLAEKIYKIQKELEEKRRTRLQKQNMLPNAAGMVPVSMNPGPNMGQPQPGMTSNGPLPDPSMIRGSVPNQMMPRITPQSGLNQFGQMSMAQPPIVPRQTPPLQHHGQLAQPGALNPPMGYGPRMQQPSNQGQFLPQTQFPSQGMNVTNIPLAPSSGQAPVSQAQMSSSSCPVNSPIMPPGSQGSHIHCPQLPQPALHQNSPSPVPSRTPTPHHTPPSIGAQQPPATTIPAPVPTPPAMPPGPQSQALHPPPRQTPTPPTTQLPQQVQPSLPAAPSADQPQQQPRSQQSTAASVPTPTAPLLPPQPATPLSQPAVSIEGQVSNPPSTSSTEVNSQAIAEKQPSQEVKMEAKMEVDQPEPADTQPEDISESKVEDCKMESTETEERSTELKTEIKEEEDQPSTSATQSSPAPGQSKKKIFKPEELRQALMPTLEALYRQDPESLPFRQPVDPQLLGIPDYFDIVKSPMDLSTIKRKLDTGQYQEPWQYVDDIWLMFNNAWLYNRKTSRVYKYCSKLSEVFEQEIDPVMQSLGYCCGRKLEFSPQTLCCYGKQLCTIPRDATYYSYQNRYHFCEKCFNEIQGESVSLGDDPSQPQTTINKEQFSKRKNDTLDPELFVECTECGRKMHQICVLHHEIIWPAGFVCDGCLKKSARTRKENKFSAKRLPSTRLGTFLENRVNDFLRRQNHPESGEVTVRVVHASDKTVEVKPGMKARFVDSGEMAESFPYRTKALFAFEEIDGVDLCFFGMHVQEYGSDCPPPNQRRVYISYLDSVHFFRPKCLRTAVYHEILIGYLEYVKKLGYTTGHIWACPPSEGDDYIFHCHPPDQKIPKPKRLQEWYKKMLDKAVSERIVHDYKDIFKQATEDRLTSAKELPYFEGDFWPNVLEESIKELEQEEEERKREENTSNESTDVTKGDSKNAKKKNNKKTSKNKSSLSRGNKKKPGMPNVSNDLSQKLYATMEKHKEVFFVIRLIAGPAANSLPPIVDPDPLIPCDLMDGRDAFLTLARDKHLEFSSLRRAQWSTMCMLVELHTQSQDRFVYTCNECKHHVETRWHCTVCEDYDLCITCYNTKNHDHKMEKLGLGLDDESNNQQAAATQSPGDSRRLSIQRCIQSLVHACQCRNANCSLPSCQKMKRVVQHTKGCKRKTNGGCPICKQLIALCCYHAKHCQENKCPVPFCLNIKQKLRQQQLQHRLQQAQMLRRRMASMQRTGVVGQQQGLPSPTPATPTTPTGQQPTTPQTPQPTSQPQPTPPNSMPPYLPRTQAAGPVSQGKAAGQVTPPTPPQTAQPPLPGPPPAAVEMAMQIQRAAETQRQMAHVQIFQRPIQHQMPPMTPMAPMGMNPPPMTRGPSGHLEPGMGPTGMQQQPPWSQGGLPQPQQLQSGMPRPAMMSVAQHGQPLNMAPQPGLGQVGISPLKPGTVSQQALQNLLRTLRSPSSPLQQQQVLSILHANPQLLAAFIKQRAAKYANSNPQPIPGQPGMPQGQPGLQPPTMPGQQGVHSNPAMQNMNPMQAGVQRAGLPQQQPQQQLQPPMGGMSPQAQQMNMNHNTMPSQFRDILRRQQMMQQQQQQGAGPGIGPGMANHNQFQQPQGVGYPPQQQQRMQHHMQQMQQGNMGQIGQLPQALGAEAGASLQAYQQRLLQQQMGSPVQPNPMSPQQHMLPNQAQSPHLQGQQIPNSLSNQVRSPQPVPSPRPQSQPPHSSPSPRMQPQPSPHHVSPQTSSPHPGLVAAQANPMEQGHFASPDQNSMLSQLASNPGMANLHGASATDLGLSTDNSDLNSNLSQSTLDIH

In assay [1], `COc1cc([C@@H]2c3cc4c(cc3[C@@H](Nc3ccc([N+](=O)[O-])cc3)[C@H]3COC(=O)[C@H]23)OCO4)cc(OC)c1O` displayed an IC50 of 1 to 5 nM. With `CN1C(=O)[C@@]23C[C@]4([C@]56C[C@@]78SS[C@@](CO)(C(=O)N7[C@H]5Nc5ccccc56)N(C)C8=O)c5ccccc5N[C@@H]4N2C(=O)[C@]1(CO)SS3` [CHAETOCIN], in the assay on Hep 3B2, the IC50 was 100 nM. This counts as sub-micromolar. As for `CC(C)C[C@H](NC(=O)[C@H](C)NC(=O)[C@H](CCCNC(=N)N)NC(=O)[C@H](C)N1CC/C=C\CC(=O)N[C@@H](CCC(=O)O)C(=O)N[C@@H](CC(C)C)C1=O)C(=O)N[C@@H](CC(=O)O)C(=O)N[C@@H](CCC(N)=O)C(N)=O`, the dissociation constant (Kd) in assay [2] is 690 nM. Consider `CC(C)Cc1cc(CNC(=O)N2CCN(CC(=O)Nc3ccccc3Cl)CC2)nn1-c1ccccc1.Cl`, for which the concentration for half-maximal inhibition (IC50) in assay [3] was determined as 107000 nM. In turn, `CN1C(=O)[C@]2(Cc3ccc(CCc4ccc(C[C@@]56SS[C@@](CO)(C(=O)N5C)N(C)C6=O)cc4)cc3)SS[C@@]1(CO)C(=O)N2C` gave a half-inhibitory concentration (IC50) in assay [4] of 600 nM.

The compound `CN1C(=O)[C@]2(Cc3ccc(C[C@@]45SS[C@@](CO)(C(=O)N4C)N(C)C5=O)cc3)SS[C@@]1(CO)C(=O)N2C` registered an IC50 in assay [4] of 1500 nM.
